These results are taken from paper PMC3454369, “Functional Redundancy of Class I Phosphoinositide 3-Kinase (PI3K) Isoforms in Signaling Growth Factor-Mediated Human Neutrophil Survival” (PLoS ONE, 2012).

Broadly, the IC50 is the midpoint of a concentration-inhibition curve.

In assay [1] the test system is Human neutrophils. In words: rhGM-CSF-modulated human neutrophil apoptosis, annexin V/PI flow cytometry. In kind it is cell-based. The following applies: inhibitor 10 µM, rhGM-CSF 10 ng/ml, 20 h. As for the experimental part: To examine the effects of small molecule PI3K inhibitors on rhGM-CSF (10 ng/ml) -modulated apoptosis, neutrophils (5×10^6/ml) were re-suspended in Iscove’s modified Dulbecco medium (IMDM) supplemented with 10% autologous serum, 100 U/mL penicillin and 100 µg/mL streptomycin in non-tissue culture treated flat bottom Falcon Flexiwell plates in a humidified 5% CO2 atmosphere at 37°C.

The target of assay [2] is p110α (Homo sapiens, UniProt P42336). The following applies: in vitro kinase assay; data compiled from published work; cited from earlier work.
Assay [3] deals with p110δ (Homo sapiens, UniProt O00329). Conditions: in vitro kinase assay; data compiled from published work; cited from earlier work.
Assay [4] has as its target p110γ (Homo sapiens, UniProt P48736). Conditions: in vitro kinase assay; data compiled from published work; cited from earlier work.

Sequence of p110δ (O00329 whole entry, species assumed): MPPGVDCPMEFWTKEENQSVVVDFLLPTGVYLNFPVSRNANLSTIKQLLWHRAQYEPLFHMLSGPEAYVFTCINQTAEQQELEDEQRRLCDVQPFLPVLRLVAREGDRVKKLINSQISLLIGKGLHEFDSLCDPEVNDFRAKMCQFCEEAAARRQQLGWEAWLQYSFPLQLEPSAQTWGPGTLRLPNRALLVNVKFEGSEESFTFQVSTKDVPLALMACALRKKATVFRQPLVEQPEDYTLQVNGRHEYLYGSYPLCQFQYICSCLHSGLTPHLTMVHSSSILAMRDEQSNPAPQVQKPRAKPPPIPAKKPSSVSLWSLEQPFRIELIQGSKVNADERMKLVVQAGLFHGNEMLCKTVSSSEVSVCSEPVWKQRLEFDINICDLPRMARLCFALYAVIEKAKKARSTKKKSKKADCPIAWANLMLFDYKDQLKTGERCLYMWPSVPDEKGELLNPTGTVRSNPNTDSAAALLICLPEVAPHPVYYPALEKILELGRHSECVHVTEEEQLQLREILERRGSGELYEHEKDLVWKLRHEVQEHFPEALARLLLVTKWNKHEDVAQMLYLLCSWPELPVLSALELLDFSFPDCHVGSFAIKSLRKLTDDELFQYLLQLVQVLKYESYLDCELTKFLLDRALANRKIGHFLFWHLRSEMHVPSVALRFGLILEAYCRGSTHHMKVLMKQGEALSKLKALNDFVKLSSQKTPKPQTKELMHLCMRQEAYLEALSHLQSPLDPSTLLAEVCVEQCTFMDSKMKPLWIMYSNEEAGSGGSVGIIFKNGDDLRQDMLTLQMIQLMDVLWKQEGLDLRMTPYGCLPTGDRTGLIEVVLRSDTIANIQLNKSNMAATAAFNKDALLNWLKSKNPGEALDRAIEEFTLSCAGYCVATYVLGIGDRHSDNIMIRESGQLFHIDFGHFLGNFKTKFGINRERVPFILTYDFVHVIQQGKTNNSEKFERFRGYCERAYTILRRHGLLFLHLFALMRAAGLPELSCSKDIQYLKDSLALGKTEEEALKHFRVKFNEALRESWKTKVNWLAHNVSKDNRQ
Sequence of p110δ (P27986 whole entry partner, species assumed): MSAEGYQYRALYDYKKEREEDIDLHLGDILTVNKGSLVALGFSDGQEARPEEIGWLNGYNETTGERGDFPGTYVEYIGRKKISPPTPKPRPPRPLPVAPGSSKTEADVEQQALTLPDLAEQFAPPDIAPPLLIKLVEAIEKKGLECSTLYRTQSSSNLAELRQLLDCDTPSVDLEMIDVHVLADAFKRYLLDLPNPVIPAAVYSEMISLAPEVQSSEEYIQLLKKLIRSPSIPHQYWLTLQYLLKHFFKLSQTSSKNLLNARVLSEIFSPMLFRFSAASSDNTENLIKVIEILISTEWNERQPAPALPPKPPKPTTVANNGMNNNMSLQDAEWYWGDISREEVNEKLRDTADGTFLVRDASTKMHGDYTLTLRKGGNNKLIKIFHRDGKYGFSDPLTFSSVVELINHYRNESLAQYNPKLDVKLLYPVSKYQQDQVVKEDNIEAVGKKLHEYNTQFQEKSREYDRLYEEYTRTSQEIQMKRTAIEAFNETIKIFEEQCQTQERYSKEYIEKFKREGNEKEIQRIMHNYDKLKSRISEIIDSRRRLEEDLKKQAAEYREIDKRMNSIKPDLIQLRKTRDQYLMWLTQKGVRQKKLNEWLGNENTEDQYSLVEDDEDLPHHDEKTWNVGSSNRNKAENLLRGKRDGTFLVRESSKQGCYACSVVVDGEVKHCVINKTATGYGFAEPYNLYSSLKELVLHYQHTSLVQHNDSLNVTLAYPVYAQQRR
Sequence of p110γ (P48736 whole entry, species assumed): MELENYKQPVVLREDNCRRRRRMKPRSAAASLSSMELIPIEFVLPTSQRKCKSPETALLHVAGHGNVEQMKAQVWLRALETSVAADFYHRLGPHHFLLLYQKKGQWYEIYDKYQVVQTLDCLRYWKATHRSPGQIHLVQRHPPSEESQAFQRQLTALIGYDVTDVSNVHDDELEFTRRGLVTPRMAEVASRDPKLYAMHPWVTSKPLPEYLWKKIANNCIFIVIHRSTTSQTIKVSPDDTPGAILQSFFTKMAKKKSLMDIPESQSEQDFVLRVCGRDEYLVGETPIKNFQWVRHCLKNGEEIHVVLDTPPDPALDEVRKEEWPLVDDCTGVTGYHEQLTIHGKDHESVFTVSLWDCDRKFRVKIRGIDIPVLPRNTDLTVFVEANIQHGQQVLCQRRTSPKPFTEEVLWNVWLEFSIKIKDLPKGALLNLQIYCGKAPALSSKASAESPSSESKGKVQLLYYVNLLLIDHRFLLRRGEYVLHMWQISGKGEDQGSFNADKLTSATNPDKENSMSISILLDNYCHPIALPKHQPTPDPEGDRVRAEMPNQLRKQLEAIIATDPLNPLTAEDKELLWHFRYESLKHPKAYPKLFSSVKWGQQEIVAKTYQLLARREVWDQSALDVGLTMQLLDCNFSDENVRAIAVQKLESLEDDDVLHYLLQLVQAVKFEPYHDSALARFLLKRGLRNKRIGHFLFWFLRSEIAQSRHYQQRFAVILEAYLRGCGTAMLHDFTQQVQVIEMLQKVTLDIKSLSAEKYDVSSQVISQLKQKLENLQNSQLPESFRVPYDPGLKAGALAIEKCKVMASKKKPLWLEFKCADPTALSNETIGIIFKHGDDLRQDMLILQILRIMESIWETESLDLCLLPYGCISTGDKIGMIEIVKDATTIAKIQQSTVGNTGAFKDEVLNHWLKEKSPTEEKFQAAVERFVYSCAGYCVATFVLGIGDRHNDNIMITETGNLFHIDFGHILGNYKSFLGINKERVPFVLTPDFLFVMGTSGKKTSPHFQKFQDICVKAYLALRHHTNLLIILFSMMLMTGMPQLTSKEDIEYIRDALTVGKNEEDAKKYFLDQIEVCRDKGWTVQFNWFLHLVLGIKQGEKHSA
Sequence of p110α (P42336 whole entry, species assumed): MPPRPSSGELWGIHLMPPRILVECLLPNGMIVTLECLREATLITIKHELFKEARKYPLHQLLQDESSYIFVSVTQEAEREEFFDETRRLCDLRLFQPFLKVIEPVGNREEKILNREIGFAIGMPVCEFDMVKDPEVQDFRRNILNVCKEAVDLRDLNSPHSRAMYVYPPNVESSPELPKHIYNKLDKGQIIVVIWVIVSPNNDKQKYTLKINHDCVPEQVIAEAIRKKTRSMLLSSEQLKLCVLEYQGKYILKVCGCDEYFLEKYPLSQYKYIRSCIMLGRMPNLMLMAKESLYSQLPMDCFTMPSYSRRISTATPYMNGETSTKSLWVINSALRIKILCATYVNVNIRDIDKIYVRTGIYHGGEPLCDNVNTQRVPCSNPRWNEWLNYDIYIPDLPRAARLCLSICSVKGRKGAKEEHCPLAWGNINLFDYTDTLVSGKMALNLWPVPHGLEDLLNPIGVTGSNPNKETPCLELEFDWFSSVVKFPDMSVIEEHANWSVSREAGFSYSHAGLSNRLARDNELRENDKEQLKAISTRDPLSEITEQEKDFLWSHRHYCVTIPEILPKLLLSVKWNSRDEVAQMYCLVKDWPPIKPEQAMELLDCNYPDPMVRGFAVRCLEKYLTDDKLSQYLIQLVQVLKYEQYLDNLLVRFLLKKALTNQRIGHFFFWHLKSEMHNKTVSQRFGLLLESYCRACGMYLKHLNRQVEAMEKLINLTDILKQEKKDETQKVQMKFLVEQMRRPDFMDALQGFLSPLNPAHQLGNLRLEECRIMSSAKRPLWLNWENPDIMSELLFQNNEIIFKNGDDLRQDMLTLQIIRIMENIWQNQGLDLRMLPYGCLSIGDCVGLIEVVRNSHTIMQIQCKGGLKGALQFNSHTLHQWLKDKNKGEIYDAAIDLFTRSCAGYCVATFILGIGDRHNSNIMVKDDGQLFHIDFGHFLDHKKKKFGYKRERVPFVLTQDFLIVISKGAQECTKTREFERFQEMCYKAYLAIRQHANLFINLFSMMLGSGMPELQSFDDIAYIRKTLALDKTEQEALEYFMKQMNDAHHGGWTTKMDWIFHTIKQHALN
Sequence of p110α (P27986 whole entry partner, species assumed): as the sequence (P27986 whole entry partner, species assumed) above

Take `Cc1cc(C(C)Nc2ccccc2)c2nc(N3CCOCC3)cc(=O)n2c1` (stereo not shown) [TGX-221]: in assay [1], the “Effect on rhGM-CSF-mediated human neutrophil survival” value is given as “failed to abrogate GM-CSF mediated survival”. For the same compound, the results for the IC50 in assay [2], in assay [3] and in assay [4] were 5 µM, 0.1 µM and 3.5 µM, respectively.
